Converted amounts (≈) assume the structure as drawn. Where two headings read alike, the source gives them in different places.
Assays:
[1] = system: human SK—OV-3 ovarian cancer cells; assay: Cellular Activity Assay (cytotoxicity, crystal violet); format: cell-based; details: SK—OV-3 cells, treated for 48 hr, 0.1-100 μM, crystal violet absorbance at 540 nm
Source text: (§1) To test the activity of compounds, two complimentary assays were used as described below. The Biochemical PRX3 Inhibition Assay tests the ability of each compound to crosslink PRX3 in a simple, in vitro system. In the Cellular Activity Assay, we are testing the ability of compounds to kill SK—OV-3 ovarian cancer cells.
The Cellular Activity Assay measures the EC50 of each compound in human SK—OV-3 ovarian cancer cells TS to be taken into the cell, transported to the mitochondria, and crosslink PRX3.
The cytotoxicity of compounds was measured as described in Nelson et al. (2021) Antioxidants (Basel) 10, 150; Cunniff et al. (2015) PloS one 10, e0127310; and Newick et al. (2012) PloS one 7, e39404. SK—OV-3 is an adherent, epithelial, adenocarcinoma cell line obtained from ATCC (ref #: HTB-77). SK—OV-3 cells are resistant to the commonly used chemotherapeutics, cis-platinum and doxorubicin. For this […], SK—OV-3 cells were plated in a 96-well plate. After 24 h recovery, the cells were treated for 48 hr with multiple concentrations of each compound ranging from 0.1-100 μM.
Cells were washed with PBS to remove dead cells and the remaining live cells were fixed with 3.0% formaldehyde and stained with 0.1% crystal violet. The amount of crystal violet was determined by reading the absorbance at 540 nm (crystal violet dye dissolved in 100% methanol) using a plate reader. The signal for crystal violet dye is proportional to the biomass of remaining live cells. GraphPad Prism9 software was used to calculate the effective inhibitory concentration (EC50) of test compounds. Results for each compound, are normalized to the amount of cells in control wells treated with the equivalent concentration of DMSO (negative control). TS or Compound 4 were included in each set of assays as a positive control.

purified human PRX3 = target: T1, purified human PRX3 (Homo sapiens, UniProt P30048); assay: Biochemical PRX3 Inhibition Assay (non-reducible crosslink by SDS PAGE + single adduct by MALDI-TOF MS); details: 100 μM PRX3 with TRX2/thioredoxin reductase/NADPH system and hydrogen peroxide, 1-2 hr at 37° C.
T1 construct: made in house
T1 sequence (P30048 62-256): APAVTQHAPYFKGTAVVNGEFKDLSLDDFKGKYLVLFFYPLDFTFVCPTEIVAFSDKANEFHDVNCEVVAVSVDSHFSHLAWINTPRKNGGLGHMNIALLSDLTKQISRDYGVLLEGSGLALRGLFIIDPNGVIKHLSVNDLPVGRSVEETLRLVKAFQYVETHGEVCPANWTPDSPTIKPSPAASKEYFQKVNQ
Source text: The compounds described herein generally react with two essential cysteine residues in the mitochondrial peroxidase PRX3, leading to the formation of a non-reducible, covalent crosslink of two PRX3 monomers. This crosslink inactivates PRX3. Increased PRX3 crosslink is associated with mitochondrial stress, increased cell death in cell models of malignant mesothelioma and is associated with decreased tumor volume in a mouse model. Cunniff et al. (2015) PloS one 10, e0127310.
as §1
This assay tests the ability of each compound to form a covalent adduct with PRX3. The assay is performed as described in Nelson et al. (2021) Antioxidants (Basel) 10, 150; and Cunniff et al. (2015) PloS one 10, e0127310, and follows the appearance of non-reducible PRX3 crosslinks by SDS PAGE gel electrophoresis and follows the appearance of single PRX3 adducts by mass spectrometry. For this assay, purified human PRX3, hydrogen peroxide (the PRX3 substrate) and all the components required to enable PRX3 to catalytically cycle (thioredoxin-thioredoxin reductase-NAPDH system) are included (details below).
The biochemical PRX3 Inhibition assay contains 100 μM PRX3, 50 μM human TRX2, 0.5 μM mouse thioredoxin reductase, and a NADPH regenerating system composed of 3.2 mM glucose 6-phosphate, 3.2 U/ml glucose 6-phosphate dehydrogenase and 0.4 mM NADPH. Samples are incubated for 1-2 hr at 37° C. with either 0.2 mM TS (positive control), compounds or an equivalent volume of DMSO (negative control). During this incubation, hydrogen peroxide is added to induce turnover of PRX3. Reactions are stopped by the addition of a buffer containing 100 mM dithiothreitol (to break disulfide bonds) and SDS (detergent to denature proteins). NADPH, Glucose 6-Phosphate, and glucose 6-phosphate dehydrogenase were purchased from Sigma Aldrich. PRX3, thioredoxin, and thioredoxin reductase were all purified to >98% purity in the Lowther laboratory according to protocols referenced in Nelson et al. (2021) Antioxidants (Basel) 10, 150; and Cunniff et al. (2015) PloS one 10, e0127310.
To measure the amount of PRX3 crosslink, proteins in the reaction were separated by SDS-polyacrylamide gel electrophoresis and stained for total protein using GelCode Blue (Life Technologies). The amount of unmodified PRX3 and TS-PRX3 crosslink was measured by densiometric analysis of the signal for the PRX3 band running at the MW of a PRX3 crosslink (˜46 kDa) compared to the PRX3 signal at the MW of the un-modified PRX3 (−23 kD).
To measure covalent adduct formation on a single PRX3 monomer, each reaction was exchanged into a mass spectrometry compatible buffer containing 40 mM ammonium citrate, pH 8.3 made in HPLC water. Sample was mixed 1:1 with a matrix solution containing 30 mg/mL sinapinic acid in 70% (vol/vol) acetonitrile, 0.2% formic acid and spotted to onto the sample plate. PRX3 mass was measured by MALDI-TOF MS analysis on a Bruker Daltonics MALDI-TOF MS spectrometer. Spectra were analyzed in FLEXAnalysis Software. The intensity of the reduced PRX3 peak (SH) and intensity of the analog adduct peak was determined and corrected for background signal at the adduct peak in the DMSO control. The fraction of single analog adduct in the monomer peak was determined by dividing the intensity of the adduct peak by the summed intensity of the SH and adduct peaks.

Solubility Assay (HPLC) = format: physicochemical; details: 20 mM HEPES, 100 mM NaCl, pH 7.5, 18-24 hours at ambient temperature
Method: A 20 mM stock solution was made for each compound in DMSO. To measure solubility, 0.03-0.05 mL of the stock was added to 0.27 mL 20 mM HEPES, 100 mM NaCl, pH 7.5. The solution was mixed and rotated 18-24 hours at ambient temperature. The next day, solutions were centrifuged for 10 min at 20,000×g at […] to remove insoluble, solid material. Next, 100 μL of the supernatant containing the soluble compound was added to 900 μL DMSO and High Performance Liquid Chromatography was performed as described in Table 1 and either HIPLC gradient 1 (Table 2) or HIPLC gradient 2 (Table 3). For each analog, a 200 μM standard and a 20 μM standard were prepared and run in parallel (standards were dissolved completely in […]). The amount ofLcompound in the experimental sample was calculated by comparing the area under the curve for compound peak to the area for the closest standard and correcting for dilution.

[2] = HEPES/NaCl buffer, aqueous with cosolvent or surfactant or cyclodextrin, kinetic from dmso stock, read-out: Solubility

solubility (Solubility Assay (HPLC); [2]) [µM]	SMILES	EC50 ([1]; Homo sapiens) [µM]	PRX3 Inhibition (Crosslink + Mono-adduct) (purified human PRX3)	EC50 [1] [µM]	solubility (Solubility Assay (HPLC))
100 to 1000 (≈ 50.3 to 503 µg/mL)	C=C(NC(=O)c1csc(-c2ccc(CNC(=O)COCCOC)cc2)n1)C(=O)NC(=C)C(=O)OC [Compound 35, Methyl 2-(2-(2-(4-((2-(2-methoxyethoxy)acetamido)methyl)phenyl)thiazole-4-carboxamido)acrylamido)acrylate]	1 to 10	+++ (>90%)	–	–
< 100	C=C(NC(=O)c1csc(-c2ccc(CNC(=O)C3CCOCC3)cc2)n1)C(=O)NC(=C)C(=O)OC [Compound 36, Methyl 2-(2-(2-(4-((tetrahydro-2H-pyran-4-carboxamido)methyl)phenyl)thiazole-4-carboxamido)acrylamido)acrylate]	1 to 10	+++ (>90%)	–	–
< 100	C=C(NC(=O)c1csc(-c2ccc(CNC(=O)CCCCCCl)cc2)n1)C(=O)NC(=C)C(=O)OC [Compound 37, Methyl 2-(2-(2-(4-((6-chlorohexanamido)methyl)phenyl)thiazole-4-carboxamido)acrylamido)acrylate]	1 to 10	+ (5-50%)	–	–
< 100	C=C(NC(=O)c1csc(-c2ccc(CNC(=O)CCCCCN=[N+]=[N-])cc2)n1)C(=O)NC(=C)C(=O)OC [Compound 39, Methyl 2-(2-(2-(4-((6-azidohexanamido)methyl)phenyl)thiazole-4-carboxamido)acrylamido)acrylate]	1 to 10	++ (50-90%)	–	–
100 to 1000 (≈ 52.6 to 526 µg/mL)	C=C(NC(=O)c1csc(N2CCC(CNC(=O)CCCCCCl)CC2)n1)C(=O)NC(=C)C(=O)OC [Compound 40, Methyl 2-(2-(2-(4-((6-chlorohexanamido)methyl)piperidin-1-yl)thiazole-4-carboxamido)acrylamido)acrylate]	10 to 25	+++ (>90%)	–	–
> 1000	C=C(NC(=O)c1csc(N2CCC(CNC(=O)COCCOC)CC2)n1)C(=O)NC(=C)C(=O)OC [Compound 41, Methyl 2-(2-(2-(4-((2-(2-methoxyethoxy)acetamido)methyl)piperidin-1-yl)thiazole-4-carboxamido)acrylamido)acrylate]	10 to 25	+++ (>90%)	–	–
< 100	C=C(NC(=O)c1csc(-c2ccc(COC(=O)NCCCOC)cc2)n1)C(=O)NC(=C)C(=O)OC [Compound 42, Methyl 2-(2-(2-(4-((((3-methoxypropyl)carbamoyl)oxy)methyl)phenyl)thiazole-4-carboxamido)acrylamido)acrylate]	1 to 10	+++ (>90%)	–	–
–	C=C(NC(=O)c1csc(-c2ccc(CNC(=O)CCCCCNC(=O)OC(C)(C)C)cc2)n1)C(=O)NC(=C)C(=O)OC [Compound 44, Methyl 2-(2-(2-(4-((6-((tert-butoxycarbonyl)amino)hexanamido)methyl)phenyl)thiazole-4-carboxamido)acrylamido)acrylate]	–	+++ (>90%)	1 to 10	+ (<0.1 mM)

SMILES	solubility (Solubility Assay (HPLC); [2]) [µM]	EC50 ([1]; Homo sapiens) [µM]	PRX3 Inhibition (Crosslink + Mono-adduct) (purified human PRX3)	EC50 [1] [µM]	solubility (Solubility Assay (HPLC))
C=C(NC(=O)c1csc(-c2ccc(CNC(=O)CCNC(=O)OC(C)(C)C)cc2)n1)C(=O)NC(=C)C(=O)OC [Compound 38, Methyl 2-(2-(2-(4-((3-((tert-butoxycarbonyl)amino)propanamido)methyl)phenyl)thiazole-4-carboxamido)acrylamido)acrylate]	< 100	1 to 10	++ (50-90%)	–	–
C=C(NC(=O)c1csc(-c2cccc(CNC(=O)OC(C)(C)C)c2)n1)C(=O)NC(=C)C(=O)OC [Compound 43, Methyl 2-(2-(2-(3-(((tert-butoxycarbonyl)amino)methyl)phenyl)thiazole-4-carboxamido)acrylamido)acrylate]	< 100	1 to 10	+++ (>90%)	–	–
C=C(NC(=O)c1csc(N2CCC(NC(=O)CC3CCOCC3)CC2)n1)C(=O)NC(=C)C(=O)OC [Compound 51, Methyl 2-(2-(2-(4-(2-(tetrahydro-2H-pyran-4-yl)acetamido)piperidin-1-yl)thiazole-4-carboxamido)acrylamido)acrylate]	< 100	–	+++ (>90%)	–	–
C=C(NC(=O)c1csc(N2CCC(NC(=O)C3COCCO3)CC2)n1)C(=O)NC(=C)C(=O)OC (centres unmarked) [Compound 58, Methyl 2-(2-(2-(4-(1,4-dioxane-2-carboxamido)piperidin-1-yl)thiazole-4-carboxamido)acrylamido)acrylate]	100 to 1000 (≈ 49.4 to 494 µg/mL)	–	+++ (>90%)	–	–
C=C(NC(=O)c1csc(N2CCN(C(=O)C3CCOCC3)CC2)n1)C(=O)NC(=C)C(=O)OC [Compound 59, Methyl 2-(2-(2-(4-(tetrahydro-2H-pyran-4-carbonyl)piperazin-1-yl)thiazole-4-carboxamido)acrylamido)acrylate]	100 to 1000 (≈ 47.8 to 478 µg/mL)	–	+++ (>90%)	–	–
C=C(NC(=O)c1csc(N2CCN(C(=O)OC(C)(C)C)[C@H](C)C2)n1)C(=O)NC(=C)C(=O)OC [Compound 60, Tert-butyl (R)-4-(4-((3-((3-methoxy-3-oxoprop-1-en-2-yl)amino)-3-oxoprop-1-en-2-yl)carbamoyl)thiazol-2-yl)-2-methylpiperazine-1-carboxylate]	< 100	–	+++ (>90%)	–	–

Source: patent US20250011316A1, “PEROXIREDOXIN 3 INHIBITORS AND METHODS OF USE FOR TREATING CANCER” (Wake Forest University Health Sciences, priority 2022, published 2025)
